# System: LNCaP cells transfected with CN390
# Experiment: steroid hormone specificity of the 1.17-kb hKLK2 enhancer, luciferase reporter
# Format: cell-based, human
# Conditions: FIG. 14
# Experimental: To assess the androgen specificity of the hKLK2 enhancer, LNCaP cells transfected with CN390 (1.17-kb “full enhancer activity” hKLK2 enhancer/minimal hKLK2 promoter) were treated with various steroid hormones.
row,Compound,induction of luciferase activity by steroid hormone vs cells not treated with hormones
1,CC/C(=C(/CC)c1ccc(O)cc1)c1ccc(O)cc1 [DES],little or no inducibility
2,C[C@@H]1C[C@H]2[C@@H]3CCC4=CC(=O)C=C[C@]4(C)[C@@]3(F)[C@@H](O)C[C@]2(C)[C@@]1(O)C(=O)CO [DEX],little or no inducibility
3,"C[C@]12CCC(=O)C[C@@H]1CC[C@@H]1[C@@H]2CC[C@]2(C)[C@@H](O)CC[C@@H]12 [DHT, dihydrotestosterone]",marked increases in luciferase activity
4,"C[C@]1(O)CC[C@H]2[C@@H]3CCC4=CC(=O)CCC4=C3C=C[C@@]21C [R1881, methyl trienolone]",marked increases in luciferase activity
